# Source: PubChem BioAssay (NCI)
#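 In this assay, cells in 96-well plates receive the compound at five concentrations for 48 hours. Endpoints are linearly interpolated between the surrounding concentrations. TGI: total growth inhibition.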
# Tests used:
# Assay in all cases: DTP human tumour cell line panel, 48 h
# SF-295 CNS = tested on: SF-295 CNS
# HT29 colon = tested on: HT29 colon
# NCI-H23 lung = tested on: NCI-H23 lung
# DU-145 prostate = tested on: DU-145 prostate
# SR leukemia = tested on: SR leukemia
# K-562 leukemia = tested on: K-562 leukemia
# M14 melanoma = tested on: M14 melanoma
# SF-268 CNS = tested on: SF-268 CNS
# BT-549 breast = tested on: BT-549 breast
# KM12 colon = tested on: KM12 colon
# SN12C renal = tested on: SN12C renal
# MALME-3M melanoma = tested on: MALME-3M melanoma
# MOLT-4 leukemia = tested on: MOLT-4 leukemia
# MDA-MB-435 = tested on: MDA-MB-435
# HL-60(TB) leukemia = tested on: HL-60(TB) leukemia
# OVCAR-5 ovarian = tested on: OVCAR-5 ovarian
# SW-620 colon = tested on: SW-620 colon
# U251 CNS = tested on: U251 CNS
# MDA-MB-231 breast = tested on: MDA-MB-231 breast
# SK-MEL-2 melanoma = tested on: SK-MEL-2 melanoma
# 786-0 renal = tested on: 786-0 renal
# NCI-H460 lung = tested on: NCI-H460 lung
# SF-539 CNS = tested on: SF-539 CNS
# RXF 393 renal = tested on: RXF 393 renal
# MCF7 breast = tested on: MCF7 breast
# UO-31 renal = tested on: UO-31 renal
# UACC-257 melanoma = tested on: UACC-257 melanoma
# A498 renal = tested on: A498 renal
# SK-MEL-28 melanoma = tested on: SK-MEL-28 melanoma
# RPMI-8226 leukemia = tested on: RPMI-8226 leukemia
# TK-10 renal = tested on: TK-10 renal
# HS 578T breast = tested on: HS 578T breast
# OVCAR-4 ovarian = tested on: OVCAR-4 ovarian
# OVCAR-8 ovarian = tested on: OVCAR-8 ovarian
# NCI-H522 lung = tested on: NCI-H522 lung
# IGROV1 ovarian = tested on: IGROV1 ovarian
# OVCAR-3 ovarian = tested on: OVCAR-3 ovarian
# PC-3 prostate = tested on: PC-3 prostate
# HCT-15 colon = tested on: HCT-15 colon
# CCRF-CEM leukemia = tested on: CCRF-CEM leukemia
# SK-OV-3 ovarian = tested on: SK-OV-3 ovarian
# HOP-92 NSCLC = tested on: HOP-92 NSCLC
# HOP-62 NSCLC = tested on: HOP-62 NSCLC
# ACHN renal = tested on: ACHN renal
# NCI-H226 lung = tested on: NCI-H226 lung
# EKVX NSCLC = tested on: EKVX NSCLC
# A549 NSCLC = tested on: A549 NSCLC
# SNB-19 CNS = tested on: SNB-19 CNS
# SNB-75 CNS = tested on: SNB-75 CNS
# T-47D breast = tested on: T-47D breast
# MDA-N = tested on: MDA-N
# LOX IMVI melanoma = tested on: LOX IMVI melanoma
# CAKI-1 renal = tested on: CAKI-1 renal
# NCI/ADR-RES ovarian = tested on: NCI/ADR-RES ovarian
# UACC-62 melanoma = tested on: UACC-62 melanoma
# COLO 205 colon = tested on: COLO 205 colon
# HCC-2998 colon = tested on: HCC-2998 colon
# HCT-116 colon = tested on: HCT-116 colon
# SK-MEL-5 melanoma = tested on: SK-MEL-5 melanoma
smiles,measurement,setting,value
Cn1c(=O)c2c(nc3n(C)c(=O)c4ccccc4n23)n(C)c1=O,TGI,SF-295 CNS,> 91.4 µM
same,TGI,HT29 colon,> 100 µM
same,TGI,NCI-H23 lung,> 100 µM
same,TGI,DU-145 prostate,> 83.6 µM
same,TGI,SR leukemia,20.1 µM
same,TGI,K-562 leukemia,> 100 µM
same,TGI,M14 melanoma,> 100 µM
same,TGI,SF-268 CNS,> 100 µM
same,TGI,BT-549 breast,> 100 µM
same,TGI,KM12 colon,> 100 µM
same,TGI,SN12C renal,> 100 µM
same,TGI,MALME-3M melanoma,> 100 µM
same,TGI,MOLT-4 leukemia,13.4 µM
same,TGI,MDA-MB-435,> 100 µM
same,TGI,HL-60(TB) leukemia,> 100 µM
same,TGI,OVCAR-5 ovarian,> 100 µM
same,TGI,SW-620 colon,> 100 µM
same,TGI,U251 CNS,> 100 µM
same,TGI,MDA-MB-231 breast,> 100 µM
same,TGI,SK-MEL-2 melanoma,> 100 µM
same,TGI,786-0 renal,> 100 µM
same,TGI,NCI-H460 lung,> 100 µM
same,TGI,SF-539 CNS,> 100 µM
same,TGI,RXF 393 renal,> 100 µM
same,TGI,MCF7 breast,> 100 µM
same,TGI,UO-31 renal,> 100 µM
same,TGI,UACC-257 melanoma,> 100 µM
same,TGI,A498 renal,> 63.6 µM
same,TGI,SK-MEL-28 melanoma,> 100 µM
same,TGI,RPMI-8226 leukemia,> 76.7 µM
same,TGI,TK-10 renal,> 100 µM
same,TGI,HS 578T breast,> 100 µM
same,TGI,OVCAR-4 ovarian,> 100 µM
same,TGI,OVCAR-8 ovarian,> 100 µM
same,TGI,NCI-H522 lung,> 100 µM
same,TGI,IGROV1 ovarian,> 100 µM
same,TGI,OVCAR-3 ovarian,> 100 µM
same,TGI,PC-3 prostate,> 100 µM
same,TGI,HCT-15 colon,> 100 µM
same,TGI,CCRF-CEM leukemia,44.9 µM
same,TGI,SK-OV-3 ovarian,> 100 µM
same,TGI,HOP-92 NSCLC,> 100 µM
same,TGI,HOP-62 NSCLC,> 84.3 µM
same,TGI,ACHN renal,66.7 µM
same,TGI,NCI-H226 lung,58.7 µM
same,TGI,EKVX NSCLC,> 100 µM
same,TGI,A549 NSCLC,> 100 µM
same,TGI,SNB-19 CNS,> 100 µM
same,TGI,SNB-75 CNS,> 93.5 µM
same,TGI,T-47D breast,> 100 µM
same,TGI,MDA-N,> 100 µM
same,TGI,LOX IMVI melanoma,> 100 µM
same,TGI,CAKI-1 renal,> 100 µM
same,TGI,NCI/ADR-RES ovarian,> 100 µM
same,TGI,UACC-62 melanoma,> 100 µM
same,TGI,COLO 205 colon,> 100 µM
same,TGI,HCC-2998 colon,> 100 µM
same,TGI,HCT-116 colon,> 100 µM
same,TGI,SK-MEL-5 melanoma,> 100 µM
Cc1cc(O)c2c(c1)CC(O)C1=C2C(=O)c2c(O)ccc(OC3CC(O)C(OC4CC(OC5CCC(O)C(C)O5)C(O)C(C)O4)C(C)O3)c2C1=O (stereo not drawn),TGI,SF-295 CNS,7.47 µM
same,TGI,HT29 colon,5.6 µM
same,TGI,NCI-H23 lung,3.88 µM
same,TGI,DU-145 prostate,3.19 µM
same,TGI,SR leukemia,2.81 µM
same,TGI,K-562 leukemia,6.98 µM
same,TGI,M14 melanoma,3.04 µM
same,TGI,SF-268 CNS,3.43 µM
same,TGI,BT-549 breast,3.42 µM
same,TGI,KM12 colon,4.46 µM
same,TGI,SN12C renal,3.25 µM
same,TGI,MALME-3M melanoma,2.1 µM
same,TGI,MOLT-4 leukemia,1.75 µM
same,TGI,MDA-MB-435,2.82 µM
same,TGI,HL-60(TB) leukemia,1.68 µM
same,TGI,OVCAR-5 ovarian,12.8 µM
same,TGI,SW-620 colon,3.14 µM
same,TGI,U251 CNS,3.22 µM
same,TGI,MDA-MB-231 breast,3.58 µM
same,TGI,SK-MEL-2 melanoma,3.83 µM
same,TGI,786-0 renal,3.47 µM
same,TGI,NCI-H460 lung,4.85 µM
same,TGI,SF-539 CNS,3.62 µM
same,TGI,RXF 393 renal,3.02 µM
same,TGI,MCF7 breast,2.96 µM
same,TGI,UO-31 renal,3.23 µM
same,TGI,UACC-257 melanoma,2.93 µM
same,TGI,A498 renal,4.91 µM
same,TGI,SK-MEL-28 melanoma,3.86 µM
same,TGI,RPMI-8226 leukemia,3.22 µM
same,TGI,TK-10 renal,4.03 µM
same,TGI,HS 578T breast,6.36 µM
same,TGI,OVCAR-4 ovarian,3.45 µM
same,TGI,OVCAR-8 ovarian,3.51 µM
same,TGI,NCI-H522 lung,2.52 µM
same,TGI,IGROV1 ovarian,2.9 µM
same,TGI,OVCAR-3 ovarian,2.16 µM
same,TGI,PC-3 prostate,3.96 µM
same,TGI,HCT-15 colon,4.64 µM
same,TGI,CCRF-CEM leukemia,0.706 µM
same,TGI,SK-OV-3 ovarian,6.71 µM
same,TGI,HOP-92 NSCLC,3.54 µM
same,TGI,HOP-62 NSCLC,3.77 µM
same,TGI,ACHN renal,2.95 µM
same,TGI,NCI-H226 lung,3.32 µM
same,TGI,EKVX NSCLC,4.27 µM
same,TGI,A549 NSCLC,7.77 µM
same,TGI,SNB-19 CNS,3.38 µM
same,TGI,SNB-75 CNS,7.73 µM
same,TGI,T-47D breast,8.38 µM
same,TGI,MDA-N,3.74 µM
same,TGI,LOX IMVI melanoma,2.89 µM
same,TGI,CAKI-1 renal,3.23 µM
same,TGI,NCI/ADR-RES ovarian,9.61 µM
same,TGI,UACC-62 melanoma,3.05 µM
same,TGI,COLO 205 colon,2.95 µM
same,TGI,HCC-2998 colon,3.58 µM
same,TGI,HCT-116 colon,3.47 µM
same,TGI,SK-MEL-5 melanoma,2.78 µM
